Experimental data as given in patent US20070197509A1, “Compositions and methods for modulating gated ion channels” (PainCeptor Pharma Corporation, priority 2005, published 2007).

Target: T1, hASIC3 (Homo sapiens, UniProt Q9UHC3)
T1 sequence (Q9UHC3 1-531): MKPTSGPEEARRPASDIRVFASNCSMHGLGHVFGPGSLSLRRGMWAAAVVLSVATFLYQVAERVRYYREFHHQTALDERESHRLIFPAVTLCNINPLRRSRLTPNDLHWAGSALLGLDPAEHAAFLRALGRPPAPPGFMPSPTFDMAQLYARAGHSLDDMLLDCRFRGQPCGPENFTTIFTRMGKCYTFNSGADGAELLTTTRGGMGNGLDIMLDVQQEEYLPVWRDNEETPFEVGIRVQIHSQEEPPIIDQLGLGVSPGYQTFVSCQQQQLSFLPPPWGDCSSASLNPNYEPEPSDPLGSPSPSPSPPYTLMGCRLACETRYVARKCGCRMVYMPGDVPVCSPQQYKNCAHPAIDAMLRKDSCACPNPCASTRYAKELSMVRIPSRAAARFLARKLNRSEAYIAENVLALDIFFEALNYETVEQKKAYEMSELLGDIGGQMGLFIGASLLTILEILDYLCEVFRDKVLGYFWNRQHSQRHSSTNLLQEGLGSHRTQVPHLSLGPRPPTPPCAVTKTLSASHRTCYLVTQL
Assay: FlexStation assay on HEK293 cells expressing hASIC3
Type: cell-based
Design: expressed in transfected cells; host or cells: HEK293 cells
Conditions: FlexStation (Flex), Tables A-F; read-out: Biological Data (IC50 uM) h3 (Flex)
Description: A vial of FMP dye (Molecular Devices) is resuspended in 10.5 ml of assay buffer (48.3 mM NaCl, 93 mM NMDG, 5 mM KCl, 5 mM CaCl2, 1 mM MgCl2, 10 mM HEPES, pH 7.4). The culture medium is aspirated from the wells, and 100 μl of the FMP loading solution is added to each well. The cells are incubated at 37° C. for 30 min.
After the loading period, the loading solution is left on the cells and the membrane potential-induced fluorescence is measured in FLIPR™ or FlexStation™ (Molecular Devices, USA), or any other suitable equipment known to the skilled in the art.
For cells co-expressing ASIC1a and ASIC3 channels (e.g. HEK293 cells), membrane potential dye (FMP dye) is used and the FlexStation settings are as above.
The MES-induced peak calcium response (or change in membrane potential), in the presence of test substance, is expressed relative to the MES response alone. Test substances that block the MES-induced calcium response (or change in membrane potential) are re-tested in triplicates. Confirmed hits are picked for further characterization by performing full dose-response curves to determine potency of each hit compound as represented by the IC50 values (i.e., the concentration of the test substance which inhibits 50% of the MES-induced calcium and/or membrane potentiation response; see, for example, FIG. 1).
The data shown in Table H was acquired using the FlexStation assay described in Example 1 on HEK293 cells expressing hASIC3 (h3) and/or hASIC1a (h1a).

## Cc1cc(OC2CCN(Cc3ccccc3)CC2)c2ccccc2n1 [Compound R, 4-(1-benzyl-piperidin-4-yloxy)-2-methyl-quinoline]
  IC50: 5 to 15 µM
